We go through 11 compounds from ChEMBL document CHEMBL1201862, “PubChem BioAssay data set” (2004).

Test systems include RPMI-8226; COLO 205; MOLT-4; SK-MEL-2; MDA-MB-231; SF-295; SF-539; A549; NCI-H226; HCT-15; SF-268; IGROV-1; HCC 2998; Malme-3M; SNB-19; 786-0; HT-29; UACC-257; SK-MEL-28; A498.
Holding throughout (assay): NCI tumour cell line growth inhibition, 48 h

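All cell lines were grown in 96-well plates and treated with compound for 48 hours. GI50: concentration for 50% inhibition of growth.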 Activity calls are given as the source filed them. Cut-off read from the data, not from the text of the source: active = GI50 up to about 1.1 µM and inactive = higher. Bounds are passed on as bounds.

Turning to `C=C1C[C@H](O)[C@H](Br)C(C)(C)C12CCC(C)(Cl)C(Br)C2` (stereo partly specified), the GI50 was 0.589 µM (active) with RPMI-8226; 1.02 µM (active) in the test with COLO 205; 0.451 µM (active) in the test on MOLT-4; 1 µM (active) in the test on SK-MEL-2; 2.72 µM (inactive) with MDA-MB-231; 1.19 µM (inactive) with SF-295. For the same compound, the GI50 is 15.6 µM (inactive) in the test on SF-539; 0.566 µM (active) in the test with A549; 2.27 µM (inactive) in the test with NCI-H226; 7.45 µM in the test on HCT-15; 6.87 µM (inactive) with SF-268; 4.38 µM (inactive) with IGROV-1. Further, the GI50 was 5.52 µM (inactive) with HCC 2998; 5.87 µM (inactive) in the test on Malme-3M; 1.23 µM (inactive) in the test with SNB-19; 5.48 µM (inactive) in the test on 786-0; 0.141 µM (active) with HT-29; 0.526 µM (active) with UACC-257. Also, the GI50 in the test with SK-MEL-28 was 7.74 µM (inactive).
As for `Cc1ccc(NC(=O)C2C(=O)N(c3ccc(C)cc3)C(=O)/C2=N\NC(N)=S)cc1` (stereo unspecified), the GI50 in the test with RPMI-8226, in the test on COLO 205, with MOLT-4, with SK-MEL-2, with SF-295 and in the test with SF-539 was > 100 µM (inactive) in each case. The GI50 with NCI-H226 is > 100 µM (inactive); with HCT-15 it was above 100 µM; in the test on SF-268, > 100 µM (inactive); with IGROV-1, > 100 µM (inactive); in the test with HCC 2998 it was > 100 µM (inactive); in the test on A498 it was > 100 µM (inactive). Further, the GI50 in the test on Malme-3M, in the test with SNB-19, with 786-0, in the test on HT-29, in the test with UACC-257 and with SK-MEL-28 was > 100 µM (inactive) throughout.
`COc1ccc(-c2c(N)[n+]([O-])c3cc(C)c(C)cc3[n+]2[O-])cc1OC`: the GI50 in the test on RPMI-8226 was > 100 µM (inactive); in the test on COLO 205, 22.3 µM (inactive); in the test with MOLT-4, 78.3 µM (inactive); in the test with SK-MEL-2 it was 66.8 µM (inactive); in the test with SF-295 it was > 100 µM (inactive); with SF-539, 33.9 µM (inactive). Besides, the GI50 is > 100 µM (inactive) with A549; > 100 µM (inactive) in the test with NCI-H226; 48.6 µM in the test with HCT-15; 43.8 µM (inactive) with SF-268; > 100 µM (inactive) with IGROV-1; > 100 µM (inactive) in the test with HCC 2998. In addition, the GI50 in the test on A498 was > 100 µM (inactive); in the test with Malme-3M, > 100 µM (inactive); in the test with SNB-19, 91.2 µM (inactive); in the test with 786-0, > 100 µM (inactive); in the test with HT-29, 73.1 µM (inactive); in the test with UACC-257 it was 41.5 µM (inactive). Moreover, the GI50 in the test with SK-MEL-28 is 38.5 µM (inactive).
As to `CCN(CC)CCNc1ccc2ncn3c4cc(O)ccc4c(=O)c1c23`, the GI50 was 2.17 µM (inactive) in the test on RPMI-8226; 2.41 µM (inactive) in the test on COLO 205; 0.668 µM (active) in the test with MOLT-4; 8.59 µM (inactive) in the test with SK-MEL-2; 2.5 µM (inactive) in the test with SF-295; 3.25 µM (inactive) in the test with SF-539. In addition, the GI50 in the test with A549 was 3.31 µM (inactive); in the test on NCI-H226 it was 2.82 µM (inactive); in the test with HCT-15, 3.65 µM; in the test on SF-268, 2.09 µM (inactive); in the test on IGROV-1, 4.25 µM (inactive); in the test with HCC 2998, 3.84 µM (inactive). Also, the GI50 in the test on A498 is 4.86 µM (inactive); in the test with Malme-3M, 3.97 µM (inactive); in the test on SNB-19, 3.9 µM (inactive); in the test on 786-0 it was 2.48 µM (inactive); with HT-29, 1.95 µM (inactive); in the test on UACC-257, 5.37 µM (inactive). In the test with SK-MEL-28, the GI50 was 4.73 µM (inactive).
`COc1cc(C2c3cc4c(cc3[C@@H](Nc3ccccc3)C3COC[C@H]23)OCO4)cc(OC)c1O` (stereo partly specified): the GI50 with RPMI-8226 was 0.631 µM (active); in the test with COLO 205, 3.28 µM (inactive); in the test with MOLT-4, 0.0665 µM (active); in the test on MDA-MB-231 it was 1.64 µM (inactive); with SF-295 it was 0.485 µM (active); with SF-539 it was 1.26 µM (inactive). Besides, the GI50 in the test with A549 is 0.35 µM (active); in the test with HCT-15, 1.12 µM; in the test on SF-268, 3.03 µM (inactive); with IGROV-1, 8.34 µM (inactive); with HCC 2998 it was 5.83 µM (inactive); in the test with SNB-19, 1.69 µM (inactive). Moreover, the GI50 in the test with 786-0 was 1.1 µM (active); in the test on HT-29, 3.06 µM (inactive); in the test with UACC-257 it was 14.6 µM (inactive); in the test with SK-MEL-28, 5.77 µM (inactive).
In the case of `[O-][n+]1c(-c2ccccc2)oc2ccccc21`, the GI50 with RPMI-8226 is > 22.6 µM (inactive); in the test on COLO 205, 18.6 µM (inactive); in the test with MOLT-4, > 69.7 µM (inactive); in the test on SK-MEL-2, 17.7 µM (inactive); in the test with SF-295, 14 µM (inactive); with SF-539, 16.3 µM (inactive). Further, the GI50 is 4.6 µM (inactive) in the test with A549; 30.8 µM (inactive) in the test on NCI-H226; 6.12 µM in the test with HCT-15; 26.9 µM (inactive) with SF-268; 34.1 µM (inactive) with IGROV-1; 19.1 µM (inactive) in the test on HCC 2998. In addition, the GI50 with A498 was 17.9 µM (inactive); in the test on Malme-3M it was 13 µM (inactive); with SNB-19, 24.7 µM (inactive); in the test on 786-0, 22.6 µM (inactive); with HT-29, 21.4 µM (inactive); with UACC-257, 7.71 µM (inactive). Also, the GI50 in the test on SK-MEL-28 was 18.1 µM (inactive).
As to `Cc1ccc(S(=O)(=O)NC(=O)NC(C(=O)O)C(C)C)cc1` (stereo unspecified), the GI50 in the test on RPMI-8226, with COLO 205, in the test on MOLT-4, in the test on SK-MEL-2, in the test on MDA-MB-231 and with SF-295 was > 100 µM (inactive) each time. Also, the GI50 in the test on SF-539 was > 100 µM (inactive); with A549 it was > 100 µM (inactive); in the test on HCT-15, above 100 µM; in the test on SF-268 it was > 100 µM (inactive); in the test on IGROV-1, > 100 µM (inactive); in the test on Malme-3M it was > 100 µM (inactive). Further, the GI50 in the test on SNB-19, in the test with 786-0, with HT-29, with UACC-257 and in the test with SK-MEL-28 was > 100 µM (inactive) throughout.
For `CC(C)=CC[C@]12CCN[C@H]1N(S(=O)(=O)c1ccccc1)c1ccccc12`, the GI50 was 18.3 µM (inactive) with RPMI-8226; 15.1 µM (inactive) with COLO 205; 21.1 µM (inactive) in the test on MOLT-4; 14.2 µM (inactive) in the test with SK-MEL-2; 19 µM (inactive) in the test on MDA-MB-231; 14.8 µM (inactive) in the test with SF-295. Moreover, the GI50 with SF-539 is 20.3 µM (inactive); in the test on A549, 19.9 µM (inactive); in the test with NCI-H226, 14.9 µM (inactive); with HCT-15, 15.6 µM; in the test with SF-268, 14.8 µM (inactive); in the test on IGROV-1, 10.6 µM (inactive). The GI50 in the test with HCC 2998 was 16.7 µM (inactive); in the test with Malme-3M, 16.3 µM (inactive); in the test on SNB-19 it was 21.5 µM (inactive); in the test with 786-0, 15.6 µM (inactive); in the test with HT-29, 18.5 µM (inactive); with UACC-257 it was 17.6 µM (inactive). Further, in the test on SK-MEL-28, the GI50 was 16.4 µM (inactive).
As for `Cc1cnc(Cl)nc1C(C#N)c1nc2ccccc2n1C` (stereo unspecified), the GI50 was 85.9 µM (inactive) in the test with RPMI-8226; > 100 µM (inactive) with COLO 205; > 100 µM (inactive) with MOLT-4; > 100 µM (inactive) in the test on MDA-MB-231; > 100 µM (inactive) in the test with SF-295; 31 µM (inactive) with SF-539. In addition, the GI50 with A549 is 62.5 µM (inactive); in the test on NCI-H226 it was > 100 µM (inactive); with HCT-15 it was above 100 µM; in the test on SF-268, 29.9 µM (inactive); with IGROV-1, 33.4 µM (inactive); in the test on A498, > 100 µM (inactive). Moreover, the GI50 in the test with Malme-3M was > 100 µM (inactive); in the test with SNB-19, 41.6 µM (inactive); in the test on 786-0 it was 44.4 µM (inactive); in the test on HT-29 it was 35.9 µM (inactive); in the test with UACC-257 it was > 100 µM (inactive); in the test with SK-MEL-28 it was 93.1 µM (inactive).
In the case of `O=C(O)COc1ccc(C(=O)/C(SS/C(C(=O)c2ccc(OCC(=O)O)c(Cl)c2Cl)=C2\C=C(c3ccc(F)cc3)SS2)=C2/C=C(c3ccc(F)cc3)SS2)c(Cl)c1Cl`, the GI50 in the test on RPMI-8226 is 10.1 µM (inactive); in the test with COLO 205, 6.76 µM (inactive); with MOLT-4, 8.67 µM (inactive); in the test with SK-MEL-2 it was 15.6 µM (inactive); with SF-295, 20.8 µM (inactive); in the test with SF-539 it was 9.02 µM (inactive). Further, the GI50 is 40.4 µM (inactive) with A549; 15.1 µM (inactive) in the test on NCI-H226; 9.71 µM in the test with HCT-15; 6.9 µM (inactive) with SF-268; 10.8 µM (inactive) with IGROV-1; 25.6 µM (inactive) in the test on HCC 2998. For the same compound, the GI50 in the test with A498 was 31.7 µM (inactive); with Malme-3M it was 40.8 µM (inactive); in the test on SNB-19 it was 15 µM (inactive); in the test on 786-0, 27.9 µM (inactive); in the test on HT-29, 26.9 µM (inactive); in the test with UACC-257, 27.5 µM (inactive). The GI50 in the test with SK-MEL-28 is 19.2 µM (inactive).
Consider `Cc1nc2cccc(F)c2c(=O)n1-c1nnc(C2CC2)s1`, for which the GI50 with RPMI-8226, in the test with COLO 205, in the test with MOLT-4, in the test with SK-MEL-2, in the test on MDA-MB-231 and in the test with SF-295 was > 10 µM (inactive) in each case. Further, the GI50 was > 10 µM (inactive) with SF-539; > 10 µM (inactive) in the test on A549; > 10 µM (inactive) in the test with NCI-H226; above 10 µM with HCT-15; > 10 µM (inactive) in the test on SF-268; > 10 µM (inactive) with IGROV-1. The GI50 in the test on HCC 2998, in the test with SNB-19, in the test on 786-0, with HT-29, in the test on UACC-257 and with SK-MEL-28 was > 10 µM (inactive) each time.
